Assay [1] deals with Brain-Specific Receptors of Rats (3H-benzodiazepine binding). The assay is described as follows: Inhibition of the binding of 3H-benzodiazepine to brain-specific receptors of rats. The arrangement: species or system rat (Wistar strain, whole cortex). The note with it: rat cortex P2 fraction, 3H-diazepam 1.5 nM or 3H-flunitrazepam 1.0 nM. From the text: Another test utilized for the determination of anxiolytic activity is the measurement of the ability of a test compound to inhibit the binding of tritiated benzodiazepines to brain-specific receptors of mammals. A modification of the method described by R. F. Squires, et al., Nature, 266 (21), 732 (Apr., 1977) and H. Mohler, et al., Science, 198, 849 (1977) was employed. […] The test compounds were solubilized in dimethylformamide, acetic acid, ethanol or hydrochloric acid. […] (1) resuspended in twice the original volume in hypotonic 50 mM Tris.HCl (pH 7.4), or (2) resuspended in one-half the original volume in hypotonic 10 mM Tris.HCl (pH 7.4) and frozen (-20° C.) until time. of use. Frozen P2 preparations were thawed and resuspended in four times the original homogenizing volume at time of assay. […] Incubation for 30 minutes proceeded in ice and was terminated by filtration, under vacuum, through glass fiber filters. The filters were washed twice with 5 ml of ice-cold 50 mM Tris.HCl (pH 7.4) and placed in scintillation vials. After drying at 50°-60° C. for 30 minutes, 10 ml of diluent was added and the radioactivity determined in a scintillation counter. Inhibition of binding was calculated by the difference between total binding and binding in the presence of test compound, divided by the total binding, X 100.

Assay [2] deals with T1, human platelet membranes (3H-imipramine receptor) (Homo sapiens, UniProt P31645).
T1 construct: Fresh human platelet concentrates (less than 48 hours old) were obtained from the New York Blood Center; tissue New York Blood Center; host or cells: human blood platelets, membranes
The assay is described as follows: 3H-imipramine binding to human platelet membranes. Here is the method:
The activity of the compounds of the invention as antidepressant agents was further verified# in the following test which measures the ability of a test compound to inhibit 3H-imipramine binding to human platelet membranes.
Platelet membranes were obtained using the procedure described by Wennogle, L. et al., Pharmac. Biochem. Behav., 15. 975 (1981). Fresh human platelet concentrates (less than 48 hours old) were obtained from the New York Blood Center. These concentrates were prepared in a citrate-dextrose anticoagulant using standard techniques. Platelets were washed twice by centrifugation (2500×G, 10 minutes) in 50 volumes of an antiprotease buffer containing 0.005M Tris potassium chloride, 0.12M sodium chloride, 0.05M Tris pH 7.5, 0.025 Units/ml aprotinin, 0.05 μg/m pepstatin, 2×10^-5 bacitracin, 3 mM ethylenediaminetetraacetic acid and 1.0 mM ethyleneglycol-bis (β-aminoethylether)N,N'-tetra-acetic acid. […] All procedures were conducted at 0° C. using plastic laboratory-ware throughout the platelet membrane preparation. Platelets were resuspended in 20 volumes of buffer and sonicated 3 times using 10 second bursts of a Branson sonifier (cell disrupter 350) at setting 6 (standard 3/4 inch horn), keeping the sample on ice throughout the procedure. Platelet membranes were then washed twice at 18,000×G for 20 minutes with 50 volumes of the antiprotease buffer and resuspended to 3.0 mg. protein/ml using the Bradford protein analysis with bovine gamma globulin as standard. Membranes were used immediately or stored frozen in liquid nitrogen.
The displacement of 3H-imipramine binding to human platelet membranes was performed essentially as described by Paul, S. M., et al., Life Sci., 953 (1980) with the following modifications. Membranes (0.3 mg protein) were suspended in antiprotease buffer with both […] 3H-imipramine (New England Nuclear) and displacing drug or buffer in a total volume of 250 #1 in glass test tubes. Samples were incubated for 90 minutes at 0° C., then diluted to 5 ml in 0.12M sodium chloride, 0.005M potassium chloride, 0.05M Tris pH 7.5 (wash buffer) and immediately filtered through GF/B Whatman Filters and washed twice with 5 ml of wash buffer. Filters were counted in a liquid scintillation counter after addition of Beckman HP Scintillant.
Non-specific binding of 3H-imipramine was defined as that fraction (generally 35%) of radioactivity that was not displaced by 10 μM desmethylimipramine. Specific binding was determined by subtraction of this non-specific level from values for total 3H-imipramine binding which were measured by incubating 3H-imipramine in the absence of displacing drug. Compounds were tested in duplicate test tubes at a concentration of 10 μM. Compounds which inhibited binding by more than 50% were considered to be active.

The test system of assay [3] is Spontaneously Hypertensive Rats. As to the kind of experiment: Hypotensive activity: mean arterial blood pressure in spontaneously hypertensive rats. The class given is in vivo, rat (Okamoto strain, male). The following applies: SHR, gavage, 100 mg/kg or less, two doses 24 h apart, measured at 28 hours; average MABP of rats used 160±1.5 mm. Here is the method: The novel compounds of the invention are active hypotensive agents at nontoxic doses when administered to mammals. These compounds were tested for hypotensive activity by the method of P. S. Chan and D. W. Poorvin, Clinical and Experimental Hypertension, (6), 817-830 (1979). Male, 16 week old, spontaneously hypertensive rats of the Okamoto strain (Taconic Farms, Germantown, N.Y.) having an average means arterial blood pressure of 160±1.5 mm of mercury are used in the test. A rat is dosed by gavage with a test compound, suspended in 2% pre-boiled starch at a concentration of 50 mg/ml, at a dose of 100 mg/kg of body weight or less, with 0.9% sodium chloride loading at a dose of 25 ml/kg of body weight. A second identical dose of the test compound, without sodium chloride loading is given 24 hours later. At 28 hours after the initial dose the mean arterial blood pressure is measured by the method of Chan and Poorvin vide supra.

The test system of assay [4] is mice (hypoxic environment). The assay is described as follows: Hypoxic survival test. The note with it: Mus musculus, ip, 5 min, 100 mg/kg, intraperitoneal, 10% oxygen, 5 minutes; read-out: % Survivors. The class given is in vivo, mouse (Royal Hart). The procedure: The hypoxic survival test is a useful in vivo test for measuring the effectiveness of central nervous system-acting drugs in enhancing survival in an hypoxic environment relative to the known parasympathomimetic agent physostigmine.
Drugs are tested by intraperitoneal injection of groups of mice 30 minutes prior to placing them in an hypoxic environment and measuring survival. The rationale of this test is that drugs which enhance survival under hypoxic conditions without concomitant depression or sedative side effects, do so by enhancing brain metabolism, i.e., by improving energy supply relative to demand and so preserving normal brain function under conditions of reduced energy metabolism. Considering the dependence of the brain on a constant supply of energy, drugs which have this property may have many far-reaching therapeutic indications, including aiding recovery from stroke and closed head injury and reducing the deleterious effects of age-related central nervous system deficits.
In the hypoxic survival test, groups of 20 Royal Hart mice (6 weeks of age) were injected intraperitoneally with a test compound in saline at various doses ranging from 1 to 200 mg/kg, 30 minutes prior to placing them in an hypoxic mixture (10% oxygen, 90% […]) and measuring survival after 5 minutes.
A control group of 20 mice was injected intraperitoneally with saline (0.01 ml/g of body weight) and processed as described above.
Another group of 20 mice was injected intraperitoneally with 0.125 mg/kg of physostigmine in saline and processed as described above.

Where a name gives a salt, the structure may show the parent alone.

This note sets out measurements from patent US4963553A, “4-[(substituted) alkylcarbonyl]-4,5-dihydro- and -4,5,6,7-tetrahydro-7-[(substituted)phenyl]pyrazolo[1,5-a]pyrimidines” (American Cyanamid Co., priority 1988, dated 1990).

In general, inhibition refers to the change of the read-out against control, counted positive when it falls.

T1 sequence (P31645 whole entry): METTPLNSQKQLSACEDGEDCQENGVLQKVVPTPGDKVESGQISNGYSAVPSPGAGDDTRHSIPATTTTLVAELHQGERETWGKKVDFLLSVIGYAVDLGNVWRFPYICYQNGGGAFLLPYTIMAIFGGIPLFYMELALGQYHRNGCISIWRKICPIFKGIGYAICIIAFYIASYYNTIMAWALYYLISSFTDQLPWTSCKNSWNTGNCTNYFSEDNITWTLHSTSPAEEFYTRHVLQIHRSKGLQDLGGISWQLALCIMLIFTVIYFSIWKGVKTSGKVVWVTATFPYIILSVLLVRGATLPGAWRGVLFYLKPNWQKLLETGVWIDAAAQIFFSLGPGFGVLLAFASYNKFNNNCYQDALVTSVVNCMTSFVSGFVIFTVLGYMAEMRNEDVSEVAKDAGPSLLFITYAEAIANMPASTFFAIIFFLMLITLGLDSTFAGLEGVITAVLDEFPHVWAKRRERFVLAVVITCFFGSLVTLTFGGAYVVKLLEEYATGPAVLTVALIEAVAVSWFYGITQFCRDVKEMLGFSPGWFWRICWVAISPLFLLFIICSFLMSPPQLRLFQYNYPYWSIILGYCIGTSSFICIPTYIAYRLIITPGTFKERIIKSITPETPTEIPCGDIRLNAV

For the molecule `CCCCCCN(CCCCCC)CC(=O)N1CC=C(c2cccc(C(F)(F)F)c2)n2ncc(C#N)c21` [4-[(Dihexylamino)acetyl]-4,5-dihydro-7-[3-(trifluoromethyl)phenyl]pyrazolo[1,5-a]pyrimidine-3-carbonitrile], the “% Inhibition (3H-benzodiazepine binding)” value in assay [1] was 24%.
Take `CN1CCN(CC(=O)N2CC=C(c3cccc(C(F)(F)F)c3)n3ncc(C#N)c32)CC1` [Example 16, 4,5-Dihydro-4-[(4-methyl-1-piperazinyl)acetyl]-7-[3-(trifluoromethyl)phenyl]pyrazolo[1,5-a]pyrimidine-3-carbonitrile]: the “% Inhibition (3H-benzodiazepine binding)” value in assay [1] came to 41%.
`N#Cc1cnn2c1N(C(=O)CCN1CCN(Cc3ccccc3)CC1)CC=C2c1cccc(C(F)(F)F)c1` [Example 27, 4,5-Dihydro-4-[1-oxo-3-[4-(phenylmethyl)-1-piperazinyl]propyl]-7-[3-(trifluoromethyl)phenyl]pyrazolo[1,5-a]pyrimidine-3-carbonitrile] had an inhibition at 10 µM in assay [2] of 80%.
With `N#Cc1cnn2c1N(C(=O)CN1CCN(CC(=O)N3CCOCC3)CC1)CC=C2c1cccc(C(F)(F)F)c1` [Example 36, 4,5-Dihydro-4-[[4-[2-(4-morpholinyl)-2-oxoethyl]-1-piperazinyl]acetyl]-7-[3-(trifluoromethyl)phenyl]pyrazolo[1,5-a]pyrimidine-3-carbonitrile], the “MABP/mmHg (mean arterial blood pressure)” value in assay [3] is given as 129 mmHg. Moreover, the “% Inhibition (3H-benzodiazepine binding)” value in assay [1] stood at 41%.
On the same counts, the results for `CC(C)NC(=O)CN1CCN(CC(=O)N2CC=C(c3cccc(C(F)(F)F)c3)n3ncc(C#N)c32)CC1` [Example 37] are 129 mmHg and 41%.
Consider `N#Cc1cnn2c1N(C(=O)CN1CCN(CC(=O)N3CCCC3)CC1)CC=C2c1cccc(C(F)(F)F)c1` [Example 38, 4,5-Dihydro-4-[[4-[2-oxo-2-(1-pyrrolidinyl)ethyl]-1-piperazinyl]acetyl]-7-[3-(trifluoromethyl)phenyl]pyrazolo[1,5-a]pyrimidine-3-carbonitrile], for which, in assay [1], the “% Inhibition (3H-benzodiazepine binding)” value was 33%.
The same measure, in the same setting: the result for `CCOC(=O)N1CCN(CC(=O)N2CC=C(c3cccc(C(F)(F)F)c3)n3ncc(C#N)c32)CC1` [Example 42] reads 45%.
As to `N#Cc1cnn2c1N(C(=O)CN1CCN(Cc3ccccc3)CC1)CCC2c1cccc(C(F)(F)F)c1` (centres unmarked) [Example 46, 4,5,6,7-Tetrahydro-4-[[4-(phenylmethyl)-1-piperazinyl]acetyl]-7-[3-(trifluoromethyl)phenyl]pyrazolo[1,5-a]pyrimidine-3-carbonitrile], the “% Inhibition (3H-benzodiazepine binding)” value in assay [1] is recorded as 14%. The responders at 100 mg/kg in assay [4] is 80%.
For the molecule `Cl.N#Cc1cnn2c1N(C(=O)CN1CCN(c3ccc(Cl)c(Cl)c3)CC1)CC=C2c1cccc(C(F)(F)F)c1` [Example 82, 4-[[4-(3,4-Dichlorophenyl)-1-piperazinyl]acetyl]-4,5-dihydro-7-[3-(trifluoromethyl)phenyl]pyrazolo[1,5-a]pyrimidine-3-carbonitrile, hydrochloride], the “% Inhibition (3H-benzodiazepine binding)” value in assay [1] amounted to 12%.
The same measure, in the same setting: the result for `N#Cc1cnn2c1N(C(=O)CN1CCN(CCC3CCCCC3)CC1)CC=C2c1cccc(C(F)(F)F)c1` [Example 86, 4-[[4-(2-(Cyclohexylethyl)-1-piperazinyl]acetyl]-4,5-dihydro-7-[3-(trifluoromethyl)phenyl]pyrazolo[1,5-a]pyrimidine-3-carbonitrile, dihydrochloride] reads 14%.
Still for that read-out and setting: next, `Cl.Cl.N#Cc1cnn2c1N(C(=O)CN1CCN(Cc3ccccc3)CC1)CCC2c1cccc(C(F)(F)F)c1` (centres unmarked) [Example 89, 4,5,6,7-Tetrahydro-4-[[4-(phenylmethyl)-1-piperazinyl]acetyl]-7-[3-(trifluoromethyl)phenyl]pyrazolo[1,5-a]pyrimidine-3-carbonitrile, dihydrochloride]: 12%; `N#Cc1cnn2c1N(C(=O)CN1CCN(C(=O)c3ccco3)CC1)CC=C2c1cccc(C(F)(F)F)c1` [Example 96, 4-[[4-(2-Furanylcarbonyl)-1-piperazinyl]acetyl]-4.5-dihydro-7-[(3-trifluoromethyl)phenyl]pyrazolo[1,5-a]pyrimidine-3-carbonitrile, hydrochloride]: 12%; `N#Cc1cnn2c1N(C(=O)CN1CCNCC1)CC=C2c1cccc(C(F)(F)F)c1` [Example 98, 4.5-Dihydro-4-(1-piperazinylacetyl)-7-[3-(trifluoromethyl)phenyl]pyrazolo[1,5-a]pyrimidine-3-carbonitrile]: 25%.
As to `N#Cc1cnn2c1N(C(=O)CN1CCN(C(=O)Nc3ccccc3)CC1)CC=C2c1cccc(C(F)(F)F)c1` [Example 99, 4-[2-[3-Cyano-7-[3-(trifluoromethyl)phenyl]pyrazolo-[1,5-a]pyrimidin-4(5H)-yl]-2-oxoethyl]-N-phenyl-1-piperazinecarboxamide], in assay [3], the “MABP/mmHg (mean arterial blood pressure)” value turned out to be 125 mmHg. Besides, in assay [1], the “% Inhibition (3H-benzodiazepine binding)” value was 24%.
On to `COc1ccc(Cl)cc1NC(=O)CN1CCN(CC(=O)N2CC=C(c3cccc(C(F)(F)F)c3)n3ncc(C#N)c32)CC1` [Example 100, N-(5-Chloro-2-methoxyphenyl)-4-[2-[3-cyano-7-[3-(trifluoromethyl)phenyl]pyrazolo[1.5-a]pyrimidin-4(5H)-yl]-2-oxoethyl]-1-piperazineacetamide], for which the “MABP/mmHg (mean arterial blood pressure)” value in assay [3] was found to be 139 mmHg. The “% Inhibition (3H-benzodiazepine binding)” value in assay [1] was determined as 15%.
